From patent publication US20230121547A1, “A COMBINATION THERAPY WITH NIROGACESTAT AND A BCMA-DIRECTED THERAPY AND USES THEREOF” (SpringWorks Therapeutics Inc., priority 2020, published 2023) come the findings set out here.

This data set is described as follows: physchem. As to conditions: organic solvent or mixture, thermodynamic from solid. The protocol: Weighed samples of material were treated with aliquots of specified solvents at ambient temperature. Samples were typically sonicated between additions to facilitate dissolution. Complete dissolution was observed through visual inspection. Solubility was calculated based on the total amount of solvent added to achieve complete dissolution and may be greater than the value reported due to incremental solvent addition and the inherent kinetics of dissolution. If dissolution was not observed, values are reported as “less than”. If dissolution was observed upon the first addition of solvent, values are reported as “greater than”.

SMILES strings stand for the structures.

Regarding `Br.Br.CCC[C@H](N[C@H]1CCc2cc(F)cc(F)c2C1)C(=O)Nc1cn(C(C)(C)CNCC(C)(C)C)cn1` [nirogacestat dihydrobromide, (S)-2-(((S)-6,8-difluoro-1,2,3,4-tetrahydronaphthalen-2-yl)amino)-N-(1-(2-methyl-1-(neopentylamino)propan-2-yl)-1H-imidazol-4-yl)pentanamide], the solubility was under 1000 µg/mL.
